Measurements taken from patent US6294580A, “Substituted 4-hydroxy-phenylalcanoic acid derivatives with agonist activity to PPAR-gamma” (Glaxo Wellcome Inc., priority 1996, dated 2001).
Like-named read-outs stand apart in the source and are kept apart here.

What was measured:
PPARg = test: PPARgamma Transient Cotransfection Assay; format: cell-based
db/db mice = test: In vivo Evaluation in db/db mice (plasma glucose); design: species or system mouse; conditions: 5 mg/kg b.i.d. oral gavage, fourteen days
Experimental: In vivo Evaluation: Experiments were performed on db/db mice (n=40-48), approximately 60 day old, divided into either vehicle or treatment groups. From each group 8-12 animals were placed in Nalgene metabolic cages, 2 per cage. The remaining animals are housed in standard rack cages; 3-4 per cage. Test compounds were dissolved in an appropriate vehicle. Animals were administered either the vehicle or the compound (dose=5 mg/kg) delivered at 5 ml/kg, b.i.d., via oral gavage for fourteen days. Daily measurements were made of mice housed in metabolic cages to determine consumption of food and water, urine output and urinary glucose excretion and changes in body weight. Animals housed in rack cages were weighed approximately every four days to monitor changes in body weight. An equal number of animals from each group were sampled on days 0, 4, 7 and 14. Mice were anesthetized with isolflurane, blood samples were obtained by cardiac puncture and analyzed to determine plasma levels of glucose, insulin, total cholesterol, triglycerides and non-esterified free fatty acids (NEFA's).

hPPARgamma = target: T1, hPPARgamma (Homo sapiens, UniProt P37231); test: hPPARgamma Ligand Binding Assay; conditions: PPARg Ki, competition with [3H]-BRL 49,653, room temperature 2 hrs
T1 construct: 10x-histidine tag (N); made in house; host or cells: E. coli
T1 sequence (P37231 195-475 isoform P37231-2): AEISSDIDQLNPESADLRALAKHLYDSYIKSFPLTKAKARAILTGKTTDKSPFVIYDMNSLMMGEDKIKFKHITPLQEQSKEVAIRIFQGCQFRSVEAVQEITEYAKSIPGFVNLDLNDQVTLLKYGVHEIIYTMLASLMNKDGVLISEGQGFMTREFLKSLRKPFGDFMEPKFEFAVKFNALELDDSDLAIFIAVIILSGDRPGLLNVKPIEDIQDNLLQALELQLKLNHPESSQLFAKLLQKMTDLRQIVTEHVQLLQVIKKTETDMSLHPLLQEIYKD
Experimental: 2. hPPARgamma Ligand Binding Assay: The PPAR-gamma ligand binding domain (amino acids 195-475) was expressed with an N-terminal 10×-histidinetag in E. coli cells. The cells were lysed and receptor was purified by means of the epitope tag. The stock solution of protein was diluted to 200 nM in assay buffer (50 mM Tris, 50 mM KCl, pH 8 20 mM CHAPS, 2 mM EDTA 10 mM DTT (Fresh)) just before use.
Test compounds were prepared as 6 mM stock solutions in DMSO. […] The right-most column of wells was used for controls. […] Plates were incubated at room temperature for 2 hrs, and then cooled on ice for 30 minutes. 50 uL samples from each well of a single test plate were simultaneously loaded onto an equilibrated AGTC 96 well gel filtration block (Advanced Genetics Technology Corp.) using a Zymak Rapidplate automated pipettor. The block was placed on top of a clean microtiter plate and centrifuged @1,100×g for 4 min. 200 uL of scintillation fluid was added to each well, the plates were sealed and allowed to equilibrate for at least 4 hours before counting in a Wallac 1250 Microbeta counter.
Ki's were determined from a nonlinear least squares fit of the data to a simple competitive binding model.

pre-adipocyte cell lines = conditions: treatment of pre-adipocyte cell lines; cited from earlier work
human patients = conditions: patients with impaired glucose tolerance, NIDDM; cited from earlier work
[1] = read-out: PPARg EC50, CAT reporter

In the case of `CN(CCOc1ccc(C[C@H](Nc2ccccc2C(=O)c2ccccc2)C(=O)O)cc1)c1ccccn1` [Example 12, 2(S)-(2-benzoyl-phenylamino)-3-{4-[2-(methyl-pyridin-2-yl-amino)-ethoxy]-phenyl}-propionic acid], the EC50 (PPARg; [1]) is reported as 5 nM and the “% lowering of plasma glucose” value (db/db mice) is reported as 58%.

With `CN(CCOc1ccc(CC(Nc2ccccc2C(=O)c2ccccc2)C(=O)O)cc1)c1nc2ccccc2o1` (stereo not drawn) [Example 16, 3-{4-[2-(benzoxazol-2-yl-methyl-amino)-ethoxy]-phenyl}-2-(2-benzoyl-phenylamino)-propionic acid] the EC50 (PPARg; CAT reporter, read-out: PPARg EC50) was 1 nM, the Ki (hPPARgamma) was 20 nM and the “% lowering of plasma glucose” value (db/db mice) was 63%.

With `Cc1oc(-c2ccccc2)nc1CCOc1ccc(C[C@H](Nc2ccccc2C(=O)c2ccccc2)C(=O)O)cc1` [Example 29, 2(S)-(2-Benzoyl-phenylamino)-3-{4-[2-(5-methyl-2-phenyl-oxazol-4-yl)ethoxy]-phenyl}-propionic acid] the EC50 (PPARg; [1]) was 0.2 nM and the “% lowering of plasma glucose” value (db/db mice) was 70%.

For `CCc1ccc(CCOc2ccc(CC3SC(=O)NC3=O)cc2)nc1` (stereo not drawn) [pioglitazone], the “expression of adipocyte-specific genes aP2 and adipsin and glucose transporter proteins GLUT-1 and GLUT-4” value (pre-adipocyte cell lines) is given as “increased expression of the adipocyte-specific genes aP2 and adipsin as well as the glucose transporter proteins GLUT-1 and GLUT-4”.

For `Cc1c(C)c2c(c(C)c1O)CCC(C)(COc1ccc(CC3SC(=O)NC3=O)cc1)O2` (stereo not drawn) [troglitazone], the “effects in human patients (insulin sensitivity, lipid and insulin levels)” value (human patients) is given as “these same beneficial effects in human patients”.
